Experimental findings from US20240228504A1, “SUBSTITUTED TRICYCLIC AMIDES, ANALOGUES THEREOF, AND METHODS USING SAME” (Arbutus Biopharma Corporation, priority 2020, published 2024) are described below.

Each structure is given as a SMILES string.

The subject of this experiment is HBV rcDNA in HepDE19 cells. In words: HepDE19 assay with bDNA quantitation of HBV rcDNA. The following applies: Hepatitis B virus, HepDE19, HepDE19 assay, inhibition of rcDNA formation, bDNA quantitation; read-out: DE-19bDNA EC50. The experiment is classed as cell-based, hepatitis B virus.
As to `CN(C(=O)c1ccc(-c2cc(F)cc(F)c2)cc1)[C@@H]1COCc2[nH]c(=O)c3cc(F)c(F)cc3c21` [Compound 286, (S)-N-(8,9-Difluoro-6-oxo-1,4,5,6-tetrahydro-2H-pyrano[3,4-c]isoquinolin-1-yl)-3′,5′-difluoro-N-methyl-[1,1′-biphenyl]-4-carboxamide], the EC50 stood at 12.9 µM.

On to `CN(C(=O)c1ccc(-c2cc(F)cc(F)c2)c(F)c1)[C@@H]1COCc2[nH]c(=O)c3cc(F)c(F)cc3c21` [Compound 287, (S)-N-(8,9-Difluoro-6-oxo-1,4,5,6-tetrahydro-2H-pyrano[3,4-c]isoquinolin-1-yl)-2,3′,5′-trifluoro-N-methyl-[1,1′-biphenyl]-4-carboxamide], for which the EC50 came out at 12.7 µM. As to `CN(C(=O)c1cccc(-c2ccccc2)c1)[C@@H]1COCc2[nH]c(=O)c3cc(F)c(F)cc3c21` [Compound 288, (S)-N-(8,9-Difluoro-6-oxo-1,4,5,6-tetrahydro-2H-pyrano[3,4-c]isoquinolin-1-yl)-N-methyl-[1,1′-biphenyl]-3-carboxamide], the EC50 was 11.3 µM. As to `CN(C(=O)c1cccc(-c2ccc(F)cc2)c1)[C@@H]1COCc2[nH]c(=O)c3cc(F)c(F)cc3c21` [Compound 289, (S)-N-(8,9-Difluoro-6-oxo-1,4,5,6-tetrahydro-2H-pyrano[3,4-c]isoquinolin-1-yl)-4′-fluoro-N-methyl-[1,1′-biphenyl]-3-carboxamide], the EC50 amounted to 6.4 µM. Consider `CN(C(=O)c1cccc(-c2cccc(F)c2)c1)[C@@H]1COCc2[nH]c(=O)c3cc(F)c(F)cc3c21` [Compound 290, (S)-N-(8,9-Difluoro-6-oxo-1,4,5,6-tetrahydro-2H-pyrano[3,4-c]isoquinolin-1-yl)-3′-fluoro-N-methyl-[1,1′-biphenyl]-3-carboxamide], for which the EC50 is 2.3 µM. Then `CN(C(=O)c1cc(F)cc(-c2cccc(F)c2)c1)[C@@H]1COCc2[nH]c(=O)c3cc(F)c(F)cc3c21` [Compound 291, (S)-N-(8,9-Difluoro-6-oxo-1,4,5,6-tetrahydro-2H-pyrano[3,4-c]isoquinolin-1-yl)-3′,5-difluoro-N-methyl-[1,1′-biphenyl]-3-carboxamide], with 10.1 µM; and `CN(C(=O)c1cccc(Oc2ccccc2)c1)[C@@H]1COCc2[nH]c(=O)c3cc(F)c(F)cc3c21` [Compound 292, (S)-N-(8,9-Difluoro-6-oxo-1,4,5,6-tetrahydro-2H-pyrano[3,4-c]isoquinolin-1-yl)-N-methyl-3-phenoxybenzamide], with 11.2 µM; and `CN(C(=O)c1cccc(Oc2ccc(F)cc2)c1)[C@@H]1COCc2[nH]c(=O)c3cc(F)c(F)cc3c21` [Compound 293, (S)-N-(8,9-Difluoro-6-oxo-1,4,5,6-tetrahydro-2H-pyrano[3,4-c]isoquinolin-1-yl)-3-(4-fluorophenoxy)-N-methylbenzamide], with 7.6 µM.

For `CN(C(=O)c1cc2ccsc2[nH]1)[C@@H]1COCc2[nH]c(=O)c3cc(F)c(F)cc3c21` [Compound 294, (S)-N-(8,9-Difluoro-6-oxo-1,4,5,6-tetrahydro-2H-pyrano[3,4-c]isoquinolin-1-yl)-N-methyl-6H-thieno[2,3-b]pyrrole-5-carboxamide], the concentration giving a half-maximal response (EC50) came out at 0.05 µM. To `CN(C(=O)c1ccc(S(C)(=O)=O)cc1)[C@@H]1COCc2[nH]c(=O)c3cc(F)c(F)cc3c21` [Compound 295, (S)-N-(8,9-Difluoro-6-oxo-1,4,5,6-tetrahydro-2H-pyrano[3,4-c]isoquinolin-1-yl)-N-methyl-4-(methylsulfonyl)benzamide] belongs 0.35 µM. To `CNS(=O)(=O)c1cccc(C(=O)N(C)[C@@H]2COCc3[nH]c(=O)c4cc(F)c(F)cc4c32)c1` [Compound 296, (S)-N-(8,9-Difluoro-6-oxo-1,4,5,6-tetrahydro-2H-pyrano[3,4-c]isoquinolin-1-yl)-N-methyl-3-(N-methylsulfamoyl)benzamide] belongs 0.89 µM; to `CN(C(=O)c1cccc(NS(C)(=O)=O)c1)[C@@H]1COCc2[nH]c(=O)c3cc(F)c(F)cc3c21` [Compound 297, (S)-N-(8,9-Difluoro-6-oxo-1,4,5,6-tetrahydro-2H-pyrano[3,4-c]isoquinolin-1-yl)-N-methyl-3-(methylsulfonamido)benzamide], 21 µM; to `CN(C(=O)c1cccc(S(C)(=O)=O)c1)[C@@H]1COCc2[nH]c(=O)c3cc(F)c(F)cc3c21` [Compound 298, (S)-N-(8,9-Difluoro-6-oxo-1,4,5,6-tetrahydro-2H-pyrano[3,4-c]isoquinolin-1-yl)-N-methyl-3-(methylsulfonyl)benzamide], 9 µM. Then `CN(C(=O)c1ccc2cncn2c1)[C@@H]1COCc2[nH]c(=O)c3cc(F)c(F)cc3c21` [Compound 299, (S)-N-(8,9-Difluoro-6-oxo-1,4,5,6-tetrahydro-2H-pyrano[3,4-c]isoquinolin-1-yl)-N-methylimidazo[1,5-a]pyridine-6-carboxamide], with 0.36 µM; and `CC(C)C(=O)OC1OC[C@@H](N(C)C(=O)c2cc3cc(F)c(F)cc3[nH]2)c2c1[nH]c(=O)c1cc(F)c(F)cc21` (stereo partly drawn) [Compound 300, (1S)-1-(5,6-Difluoro-N-methyl-1H-indole-2-carboxamido)-8,9-difluoro-6-oxo-1,4,5,6-tetrahydro-2H-pyrano[3,4-c]isoquinolin-4-yl isobutyrate], with 0.01 µM; and `CN(C(=O)c1cc(F)cc(Oc2ccccc2)c1)[C@@H]1COCc2[nH]c(=O)c3cc(F)c(F)cc3c21` [Compound 303, (S)-N-(8,9-Difluoro-6-oxo-1,4,5,6-tetrahydro-2H-pyrano[3,4-c]isoquinolin-1-yl)-3-fluoro-N-methyl-5-phenoxybenzamide], with 6.7 µM. As to `CN(C(=O)c1ccc2nccn2c1)[C@@H]1COCc2[nH]c(=O)c3cc(F)c(F)cc3c21` [Compound 306, (S)-N-(8,9-Difluoro-6-oxo-1,4,5,6-tetrahydro-2H-pyrano[3,4-c]isoquinolin-1-yl)-N-methylimidazo[1,2-a]pyridine-6-carboxamide], the EC50 came out at 0.42 µM.

Turning to `CN(C(=O)c1cc2ccncc2[nH]1)[C@@H]1COCc2[nH]c(=O)c3cc(F)c(F)cc3c21` [Compound 307, (S)-N-(8,9-Difluoro-6-oxo-1,4,5,6-tetrahydro-2H-pyrano[3,4-c]isoquinolin-1-yl)-N-methyl-1H-pyrrolo[2,3-c]pyridine-2-carboxamide], the EC50 came out at 0.2 µM.

In the case of `CN(C(=O)c1cc2cnccc2[nH]1)[C@@H]1COCc2[nH]c(=O)c3cc(F)c(F)cc3c21` [Compound 308, (S)-N-(8,9-Difluoro-6-oxo-1,4,5,6-tetrahydro-2H-pyrano[3,4-c]isoquinolin-1-yl)-N-methyl-1H-pyrrolo[3,2-c]pyridine-2-carboxamide], the EC50 is 0.61 µM. Then `CN(C(=O)c1cc2cnc(Cl)cc2[nH]1)[C@@H]1COCc2[nH]c(=O)c3cc(F)c(F)cc3c21` [Compound 309, (S)-6-chloro-N-(8,9-difluoro-6-oxo-1,4,5,6-tetrahydro-2H-pyrano[3,4-c]isoquinolin-1-yl)-N-methyl-1H-pyrrolo[3,2-c]pyridine-2-carboxamide], with 0.05 µM. To `CN(C(=O)c1cc2cc(F)ncc2[nH]1)[C@@H]1COCc2[nH]c(=O)c3cc(F)c(F)cc3c21` [Compound 310, (S)-N-(8,9-Difluoro-6-oxo-1,4,5,6-tetrahydro-2H-pyrano[3,4-c]isoquinolin-1-yl)-5-fluoro-N-methyl-1H-pyrrolo[2,3-c]pyridine-2-carboxamide] belongs 0.03 µM; to `CN(C(=O)c1ccc2cc(C(F)(F)F)cn2c1)[C@@H]1COCc2[nH]c(=O)c3cc(F)c(F)cc3c21` [Compound 311, (S)-N-(8,9-Difluoro-6-oxo-1,4,5,6-tetrahydro-2H-pyrano[3,4-c]isoquinolin-1-yl)-N-methyl-2-(trifluoromethyl)indolizine-6-carboxamide], 0.14 µM; to `CN(C(=O)c1cc2c(Br)cncc2[nH]1)[C@@H]1COCc2[nH]c(=O)c3cc(F)c(F)cc3c21` [Compound 312, (S)-4-Bromo-N-(8,9-difluoro-6-oxo-1,4,5,6-tetrahydro-2H-pyrano[3,4-c]isoquinolin-1-yl)-N-methyl-1H-pyrrolo[2,3-c]pyridine-2-carboxamide], 0.03 µM. Consider `CN(C(=O)c1ccnc(C(F)F)c1)[C@@H]1COCc2[nH]c(=O)c3cc(F)c(F)cc3c21` [Compound 313, (S)-N-(8,9-Difluoro-6-oxo-1,4,5,6-tetrahydro-2H-pyrano[3,4-c]isoquinolin-1-yl)-2-(difluoromethyl)-N-methylisonicotinamide], for which the half-maximal effective concentration (EC50) came to 0.17 µM.

As to `CN(C(=O)c1cc2occc2[nH]1)[C@@H]1COCc2[nH]c(=O)c3cc(F)c(F)cc3c21` [Compound 314, (S)-N-(8,9-Difluoro-6-oxo-1,4,5,6-tetrahydro-2H-pyrano[3,4-c]isoquinolin-1-yl)-N-methyl-4H-furo[3,2-b]pyrrole-5-carboxamide], the concentration for a half-maximal effect (EC50) came to 0.15 µM. Turning to `CN(C(=O)c1cc2cc(F)c(F)cc2[nH]1)[C@@H]1COCc2c1c1cc(F)c(F)cc1c(=O)n2CCO` [Compound 315, (S)-N-(8,9-Difluoro-5-(2-hydroxyethyl)-6-oxo-1,4,5,6-tetrahydro-2H-pyrano[3,4-c]isoquinolin-1-yl)-5,6-difluoro-N-methyl-1H-indole-2-carboxamide], the EC50 was found to be 0.03 µM. With `CN(C(=O)c1cc2cc(F)c(F)cc2[nH]1)[C@@H]1COCc2c1c1cc(F)c(F)cc1c(=O)n2CCN` [Compound 316], the EC50 worked out at 0.39 µM. Then `CN(C(=O)c1cc2cc(F)c(F)cc2[nH]1)[C@@H]1COCc2nc(OCCO)c3cc(F)c(F)cc3c21` [Compound 317, (S)-N-(8,9-Difluoro-6-(2-hydroxyethoxy)-1,4-dihydro-2H-pyrano[3,4-c]isoquinolin-1-yl)-5,6-difluoro-N-methyl-1H-indole-2-carboxamide], with 0.01 µM; and `COC1OC[C@@H](N(C)C(=O)c2cc3cc(F)c(F)cc3[nH]2)c2c1[nH]c(=O)c1cc(F)c(F)cc21` (stereo partly drawn) [Compound 320, N-((1S)-8,9-Difluoro-4-methoxy-6-oxo-1,4,5,6-tetrahydro-2H-pyrano[3,4-c]isoquinolin-1-yl)-5,6-difluoro-N-methyl-1H-indole-2-carboxamide], with 0.03 µM.
